From the NIST ThermoML archive (doi:10.1021/je050151n)
“And” between values parts separate entries of the source, which are not always exact repeats. Identical values can stand only once.

Columns and labels:
[1] = 101.33 kPa, Liquid; for mass density: Vibrating tube method; for viscosity: Vibrating wire viscometry
[2] = refractive index (Na D-line) (dimensionless); conditions: 293.15 K; 101.33 kPa; Liquid; Standard Abbe refractometry

CC(C)CCCCCCCOC(=O)c1ccccc1C(=O)OCCCCCCCC(C)C
[1]
Conditions	mass density [kg/m3]	viscosity
283.16 K	973.52	267.36 mPa·s
288.26 K	969.85	176.04 mPa·s
293.21 K	966.38	123.07 mPa·s and 122.75 mPa·s
298.24 K	962.82	87.8 mPa·s
303.21 K	959.3	64.84 mPa·s
308.2 K	955.78	48.73 mPa·s
313.21 K	952.22	37.57 mPa·s

Conditions	refractive index
[2]	1.4845
